Laboratory results published in patent US6391918B1, “N-sulphonyl and N-sulphinyl phenylglycinamide” (priority 1998, dated 2002).

CCS(=O)(=O)NC(C(=O)NCCc1ccc(OC)c(OC)c1)c1ccc(Cl)cc1 (stereo not shown)
melting point: 136 to 138 °C
